Active and inactive are the calls of the source. No cut-off for these calls is given here.
Columns and labels:
[1] = target: T1, Sterol O-acyltransferase 1 (Homo sapiens, UniProt P35610); test: Inhibition of ACAT1- mediated cholesteryl ester synthesis in macrophages
T1 sequence (P35610 whole entry): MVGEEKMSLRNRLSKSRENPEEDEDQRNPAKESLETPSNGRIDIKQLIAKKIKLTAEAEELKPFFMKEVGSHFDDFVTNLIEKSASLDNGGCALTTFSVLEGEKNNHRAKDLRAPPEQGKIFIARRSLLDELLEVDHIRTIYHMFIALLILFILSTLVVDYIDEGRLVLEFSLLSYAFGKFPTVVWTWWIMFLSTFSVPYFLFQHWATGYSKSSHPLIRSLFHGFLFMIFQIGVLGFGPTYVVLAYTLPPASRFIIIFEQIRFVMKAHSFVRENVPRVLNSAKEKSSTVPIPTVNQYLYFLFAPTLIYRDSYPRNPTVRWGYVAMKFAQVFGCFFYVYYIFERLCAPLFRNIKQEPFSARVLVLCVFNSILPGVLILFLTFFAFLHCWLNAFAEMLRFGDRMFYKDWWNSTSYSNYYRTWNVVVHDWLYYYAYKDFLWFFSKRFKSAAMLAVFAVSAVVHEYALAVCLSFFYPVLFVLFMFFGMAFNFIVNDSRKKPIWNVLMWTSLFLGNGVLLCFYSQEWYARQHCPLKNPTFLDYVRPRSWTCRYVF

[2] = target: T2, Sterol O-acyltransferase 1 (Homo sapiens) (UniProt P35610); test: Inhibition of ACAT1- mediated cholesteryl ester synthesis in macrophages up to 10 uM
T2 sequence (whole entry): T1 sequence (P35610 whole entry)

An IC50 [1] of 280 nM was found for `CCCC[C@H](C)[C@@H]1CC(=O)N[C@@H](C(c2ccccc2)c2ccccc2)C2=N[C@H](CO2)C(=O)N[C@H](C2CCCCC2)C(=O)O1` in this work.

In the case of `CCCC[C@H](C)[C@@H]1CC(=O)N[C@@H](C(c2ccccc2)c2ccccc2)C(=O)N[C@H](Cn2cc(CNC(=O)CCCCNC(=O)CCCC[C@@H]3SC[C@@H]4NC(=O)N[C@@H]43)nn2)C(=O)N[C@H](C2CCCCC2)C(=O)O1`, the inhibition [2] is reported as “inactive” and the IC50 [1] is reported as 800 nM.

Source: ChEMBL document CHEMBL1932979, “Conformationally restricted analog and biotin-labeled probe based on beauveriolide III” (Bioorg Med Chem Lett, 2012)
